Values joined by “and” are separate entries in the source; they are usually repeats but may differ in a detail not shown here. Equal entries are not always repeated. Inconclusive results and toxic doses are left out.
System: CD2F1 mice, intracerebral L1210 leukemia, survival T/C
Test: NCI In Vivo Anticancer Drug Screen. Data for tumor model L1210 Leukemia (intracerebral) in CD2F1 (CDF1) mice
Details: higher = longer survival
Experimental: The antitumor activity of compounds was measured in mice bearing transplantable tumors. Survival or tumor size were measured and the results are expressed as the measurement made in the treated group (T) divided by the measurement made in the vehicle treated control group (C). The tumor model used in this assay is L1210 Leukemia (intracerebral) in CD2F1 (CDF1) mice

[1] = endpoint: median survival time, dose: 32.0 mg/kg/injection, schedule: Q01DX005 (ip), vehicle: saline with Tween-80
[2] = endpoint: median survival time, dose: 128.0 mg/kg/injection, schedule: Q01DX005 (ip), vehicle: saline
[3] = endpoint: median survival time, dose: 64.0 mg/kg/injection, schedule: Q01DX005 (ip), vehicle: saline with Tween-80
[4] = endpoint: median survival time, dose: 128.0 mg/kg/injection, schedule: Q01DX005 (ip), vehicle: saline with Tween-80
[5] = endpoint: median survival time, dose: 256.0 mg/kg/injection, schedule: Q01DX005 (ip), vehicle: saline with Tween-80
[6] = endpoint: median survival time, dose: 50.0 mg/kg/injection, schedule: Q01DX009 (ip), vehicle: Klucel (hydroxypropylcellulose) (HPC)
[7] = endpoint: median survival time, dose: 32.0 mg/kg/injection, schedule: Q01DX005 (ip), vehicle: saline
[8] = endpoint: median survival time, dose: 64.0 mg/kg/injection, schedule: Q01DX005 (ip), vehicle: saline

S=P(N1CC1)(N1CC1)N1CC1
T/C (endpoint: mean survival time, dose: 0.25 mg/kg/injection, schedule: Q01DX009 (ip), vehicle: saline): 100 % of control and 104 % of control and 112 % of control
T/C (endpoint: mean survival time, dose: 0.5 mg/kg/injection, schedule: Q01DX009 (ip), vehicle: saline): 102 % of control and 106 % of control (2×)
T/C (endpoint: mean survival time, dose: 1.0 mg/kg/injection, schedule: Q01DX009 (ip), vehicle: saline): 104 % of control and 106 % of control and 114 % of control
T/C (endpoint: mean survival time, dose: 2.0 mg/kg/injection, schedule: Q01DX009 (ip), vehicle: saline): 124 % of control
T/C (endpoint: mean survival time, dose: 4.0 mg/kg/injection, schedule: Q01DX009 (ip), vehicle: saline): 158 % of control and 162 % of control and 168 % of control
T/C (endpoint: mean survival time, dose: 8.0 mg/kg/injection, schedule: Q01DX009 (ip), vehicle: saline): 86 % of control

COC(=O)C(Cc1ccc(N(CCCl)CCCl)cc1)N=NNc1nc[nH]c1C(N)=O (configuration not stated)
T/C (endpoint: median survival time, dose: 8.0 mg/kg/injection, schedule: Q01DX005 (ip), vehicle: saline with Tween-80): 95 % of control
T/C (endpoint: median survival time, dose: 16.0 mg/kg/injection, schedule: Q01DX005 (ip), vehicle: saline with Tween-80): 115 % of control
T/C [1]: 95 % of control

Nc1nc2c(c(=O)[nH]1)N(C=O)C(CNc1ccc(C(=O)N[C@@H](CCC(=O)O)C(=O)O)cc1)CN2 (some centres not stated)
T/C [2]: 96 % of control and 106 % of control
T/C (endpoint: median survival time, dose: 256.0 mg/kg/injection, schedule: Q01DX005 (ip), vehicle: saline): 95 % of control and 108 % of control
T/C (endpoint: median survival time, dose: 512.0 mg/kg/injection, schedule: Q01DX005 (ip), vehicle: saline): 92 % of control and 96 % of control

N[C@H](C(=O)O)[C@H]1ON=C(Cl)[C@@H]1O
T/C (endpoint: mean survival time, dose: 256.0 mg/kg/injection, schedule: Q01DX009 (ip), vehicle: saline): 118 % of control
T/C (endpoint: mean survival time, dose: 512.0 mg/kg/injection, schedule: Q01DX009 (ip), vehicle: saline): 98 % of control
T/C (endpoint: mean survival time, dose: 1024.0 mg/kg/injection, schedule: Q01DX009 (ip), vehicle: saline): 98 % of control

CN(C)C1=C(N2CC2)C(=O)C(N(C)C)=C(N2CC2)C1=O
T/C (endpoint: mean survival time, dose: 0.75 mg/kg/injection, schedule: Q04DX003 (ip), vehicle: saline): 122 % of control and 110 % of control
T/C (endpoint: mean survival time, dose: 1.5 mg/kg/injection, schedule: Q04DX003 (ip), vehicle: saline): 152 % of control and 154 % of control
T/C (endpoint: mean survival time, dose: 3.0 mg/kg/injection, schedule: Q04DX003 (ip), vehicle: saline): 156 % of control and 172 % of control

Cc1c2ccncc2c(C)c2c1[nH]c1ccccc12
T/C (endpoint: mean survival time, dose: 10.0 mg/kg/injection, schedule: Q01DX009 (ip), vehicle: saline): 157 % of control
T/C (endpoint: mean survival time, dose: 20.0 mg/kg/injection, schedule: Q01DX009 (ip), vehicle: saline): 157 % of control

CN(CCO)/N=N/c1nc[nH]c1C(N)=O
T/C [1]: 107 % of control
T/C [3]: 106 % of control
T/C [4]: 109 % of control
T/C [5]: 119 % of control

CC1(C)N=C(N)N=C(N)N1c1ccc(CCC(=O)Nc2ccc(S(=O)(=O)F)cc2)c(Cl)c1
T/C (endpoint: mean survival time, dose: 6.25 mg/kg/injection, schedule: Q01DX009 (ip), vehicle: saline): 94 % of control
T/C (endpoint: mean survival time, dose: 12.5 mg/kg/injection, schedule: Q01DX009 (ip), vehicle: saline): 94 % of control
T/C (endpoint: mean survival time, dose: 25.0 mg/kg/injection, schedule: Q01DX009 (ip), vehicle: saline): 94 % of control
T/C (endpoint: mean survival time, dose: 50.0 mg/kg/injection, schedule: Q01DX009 (ip), vehicle: saline): 98 % of control

CN(CO)c1nc(N(C)CO)nc(N(C)CO)n1
T/C (endpoint: median survival time, dose: 3.12 mg/kg/injection, schedule: Q01DX009 (ip), vehicle: saline with Tween-80): 101 % of control
T/C (endpoint: median survival time, dose: 6.25 mg/kg/injection, schedule: Q01DX009 (ip), vehicle: saline with Tween-80): 96 % of control
T/C (endpoint: median survival time, dose: 12.5 mg/kg/injection, schedule: Q01DX009 (ip), vehicle: saline with Tween-80): 100 % of control
T/C (endpoint: median survival time, dose: 25.0 mg/kg/injection, schedule: Q01DX009 (ip), vehicle: saline with Tween-80): 95 % of control
T/C [6]: 104 % of control and 109 % of control
T/C (endpoint: median survival time, dose: 50.0 mg/kg/injection, schedule: Q01DX009 (ip), vehicle: saline with Tween-80): 104 % of control
T/C (endpoint: median survival time, dose: 100.0 mg/kg/injection, schedule: Q01DX009 (ip), vehicle: Klucel (hydroxypropylcellulose) (HPC)): 119 % of control and 116 % of control

COC(COC(=O)N1CCN(C=O)CC1)C1=C(N2CC2)C(=O)C(C)=C(N2CC2)C1=O (configuration not stated)
T/C (endpoint: median survival time, dose: 0.75 mg/kg/injection, schedule: Q01DX009 (ip), vehicle: saline): 115 % of control
T/C (endpoint: median survival time, dose: 1.5 mg/kg/injection, schedule: Q01DX009 (ip), vehicle: saline): 105 % of control
T/C (endpoint: median survival time, dose: 6.0 mg/kg/injection, schedule: Q01DX009 (ip), vehicle: saline): 160 % of control

C[C@H](CN1CC(=O)NC(=O)C1)N1CC(=O)NC(=O)C1
T/C (endpoint: mean survival time, dose: 64.0 mg/kg/injection, schedule: Q01DX009 (ip), vehicle: water): 159 % of control
T/C (endpoint: mean survival time, dose: 128.0 mg/kg/injection, schedule: Q01DX009 (ip), vehicle: water): 109 % of control
T/C (endpoint: mean survival time, dose: 256.0 mg/kg/injection, schedule: Q01DX009 (ip), vehicle: water): 90 % of control

O=C1c2ccccc2C(=O)c2c(NCCNCCO)ccc(NCCNCCO)c21
T/C (endpoint: median survival time, dose: 4.0 mg/kg/injection, schedule: Q01DX009 (ip), vehicle: saline with Tween-80): 118 % of control
T/C (endpoint: median survival time, dose: 4.0 mg/kg/injection, schedule: Q01DX009 (ip), vehicle: saline): 102 % of control and 111 % of control
T/C (endpoint: median survival time, dose: 8.0 mg/kg/injection, schedule: Q01DX009 (ip), vehicle: saline): 119 % of control and 102 % of control
T/C (endpoint: median survival time, dose: 16.0 mg/kg/injection, schedule: Q01DX009 (ip), vehicle: saline): 121 % of control and 124 % of control
T/C (endpoint: median survival time, dose: 32.0 mg/kg/injection, schedule: Q01DX009 (ip), vehicle: saline with Tween-80): 97 % of control
T/C (endpoint: median survival time, dose: 32.0 mg/kg/injection, schedule: Q01DX009 (ip), vehicle: saline): 103 % of control

CN(Cc1cnc2nc(N)nc(N)c2n1)c1c(Cl)cc(C(=O)NC(CCC(=O)O)C(=O)O)cc1Cl (configuration not stated)
T/C (endpoint: median survival time, dose: 16.0 mg/kg/injection, schedule: Q01DX005 (ip), vehicle: saline): 101 % of control and 111 % of control
T/C [7]: 111 % of control
T/C [8]: 119 % of control and 120 % of control

CN(C)N=Nc1ccc([N+](=O)[O-])cc1C(N)=O
T/C [1]: 100 % of control
T/C [3]: 98 % of control
T/C [4]: 121 % of control

CN(C)N=Nc1ccccc1C(=O)O
T/C (endpoint: mean survival time, dose: 5.0 mg/kg/injection, schedule: Q01DX007 (ip), vehicle: other): 103 % of control
T/C (endpoint: mean survival time, dose: 10.0 mg/kg/injection, schedule: Q01DX007 (ip), vehicle: other): 109 % of control
T/C (endpoint: mean survival time, dose: 20.0 mg/kg/injection, schedule: Q01DX007 (ip), vehicle: other): 112 % of control
T/C (endpoint: mean survival time, dose: 40.0 mg/kg/injection, schedule: Q01DX007 (ip), vehicle: other): 101 % of control
T/C (endpoint: median survival time, dose: 4.0 mg/kg/injection, schedule: Q01DX005 (ip), vehicle: saline + alcohol): 105 % of control
T/C (endpoint: median survival time, dose: 8.0 mg/kg/injection, schedule: Q01DX005 (ip), vehicle: saline + alcohol): 102 % of control
T/C (endpoint: median survival time, dose: 16.0 mg/kg/injection, schedule: Q01DX005 (ip), vehicle: saline + alcohol): 105 % of control
T/C (endpoint: median survival time, dose: 32.0 mg/kg/injection, schedule: Q01DX005 (ip), vehicle: saline + alcohol): 108 % of control
T/C (endpoint: median survival time, dose: 64.0 mg/kg/injection, schedule: Q01DX005 (ip), vehicle: saline + alcohol): 97 % of control

CCCCN(C)N=Nc1ccc([N+](=O)[O-])cc1C(N)=O
T/C (endpoint: mean survival time, dose: 100.0 mg/kg/injection, schedule: Q01DX009 (ip), vehicle: saline with Tween-80): 112 % of control
T/C (endpoint: mean survival time, dose: 200.0 mg/kg/injection, schedule: Q01DX009 (ip), vehicle: saline with Tween-80): 122 % of control
T/C (endpoint: mean survival time, dose: 400.0 mg/kg/injection, schedule: Q01DX009 (ip), vehicle: saline with Tween-80): 100 % of control
T/C (endpoint: mean survival time, dose: 600.0 mg/kg/injection, schedule: Q01DX009 (ip), vehicle: saline with Tween-80): 89 % of control
T/C [1]: 102 % of control
T/C [3]: 108 % of control
T/C [4]: 110 % of control
T/C [5]: 103 % of control

Cc1ncc(CO)c(C)c1O
T/C (endpoint: median survival time, dose: 128.0 mg/kg/injection, schedule: Q01DX005 (ip), vehicle: Klucel (hydroxypropylcellulose) (HPC)): 105 % of control and 106 % of control
T/C (endpoint: median survival time, dose: 256.0 mg/kg/injection, schedule: Q01DX005 (ip), vehicle: Klucel (hydroxypropylcellulose) (HPC)): 111 % of control and 114 % of control

O=[N+]([O-])O.[Ga]
T/C [7]: 101 % of control
T/C [8]: 103 % of control and 107 % of control
T/C [2]: 102 % of control

O=S1(=O)CS(=O)(=O)OCCO1
T/C (endpoint: median survival time, dose: 3.13 mg/kg/injection, schedule: Q01DX009 (ip), vehicle: Klucel (hydroxypropylcellulose) (HPC)): 122 % of control
T/C (endpoint: median survival time, dose: 12.5 mg/kg/injection, schedule: Q01DX009 (ip), vehicle: Klucel (hydroxypropylcellulose) (HPC)): 170 % of control
T/C (endpoint: median survival time, dose: 25.0 mg/kg/injection, schedule: Q01DX009 (ip), vehicle: Klucel (hydroxypropylcellulose) (HPC)): 182 % of control
T/C [6]: 200 % of control

COc1ccc(C(=O)/C(Br)=C/C(=O)O)cc1
T/C (endpoint: median survival time, dose: 10.0 mg/kg/injection, schedule: Q01DX005 (ip), vehicle: saline): 98 % of control
T/C (endpoint: median survival time, dose: 20.0 mg/kg/injection, schedule: Q01DX005 (ip), vehicle: saline): 100 % of control
T/C (endpoint: median survival time, dose: 40.0 mg/kg/injection, schedule: Q01DX005 (ip), vehicle: saline): 105 % of control

Reference: PubChem BioAssay AID260 (DTP/NCI, 2004)
